Experiment: Dose–response curve of purified […]s with histidine
Assay type: biochemical
Set-up: key to Dose-response, AVE of Repeat 1-3 (Fig. 3 k): normalized ΔF/F0 (fluorescence change over baseline)
Description: Fig. 3 Dose–response curves and fluorescence spectrums of […]s. a, c, e, g, i, k Dose–response curve of purified […]s with increasing concentrations of ligand in 100 mM Tris-HCl buffer (pH=7.5). The normalized ΔF/F0 value increased after ligand binding. All data shown are mean ± S.D. (n = 3 biologically independent samples). b, d, f, h, j, l The fluorescence spectra of […]s changed as the ligand concentration increased. All data shown are mean ± S.D. (n = 3 biologically independent samples). Source data are provided as a Source data file.
The study conducted dose–response curve, substrate specificity, and fluorescent spectrum analyses in 100-mM Tris buffer (pH = 7.5), while pH stability experiments were performed in 100-mM Tris buffer at three different pH values (6.5, 7.5, and 8.5) at room temperature. […] protein at a concentration of 0.75 μM, various small molecule concentrations, 1 mM ATP, and 2.5 mM MgCl2 were used in the experiments. Fluorescent signals were detected using a Microplate Reader (Synergy H4, Bio Tek) at an excitation/emission wavelength of 460 nm/510 nm or 480 nm/510 nm. The dose-response curve was determined immediately after the addition of the analyte. The total duration of the measurement was 15 min, with readings taken at one-minute intervals. The dose-response curve was plotted using the fluorescence values obtained after achieving stability in the fluorescence signal. The dose-response curves were fitted using the logistic model LOGISTIC5 available in Origin 2021, which could provide a more adequate fit to asymmetric dose-response data[62],[63]. Excitation spectra were scanned from 300 to 540 nm with a step size of 5 nm, and the emission wavelength was set to 560 nm. Emission spectra were scanned from 470 to 700 nm with a step size of 5 nm, and the excitation wavelength was set to 450 nm. The thermal stability of […] was analyzed using the UNcle multifunctional protein stability analysis system. Measurements were performed in 20 mM MOPS buffer with 2 mM DTT at a sample concentration of 1 mg/mL. Absolute fluorescence quantum yields were measured using an absolute photoluminescence quantum yield spectrometer (FS5, Edinburgh). […]
Supplementary Fig. 2 Dose–response curves and fl uorescen ce spectr ums of GEC FINDERs. a and c, Dose– re spons e curves of puri fi ed GECF INDE R-P he1 and 2 with increas ing concen tra tions of phenylalanine (1 nM to 100 μM). The norm alized ΔF/F 0 value increas ed aft er phenylalanine binding (4 60 nm excita tion) . b and d, The fl uore scen ce spect ra of GECF IN DER-P he1 and 2 changed as the phe nylalanine concen tra tion incre ased fro m 1 nM to 100 μM. e and g, Dose–re spon se curv es of puri fied GECF IN DER-Il e1 and 2 with increas ing concen tra tio ns of isoleucine (50 nM to 10 mM). The norm alized ΔF/F 0 value increas ed aft er isoleucine binding (4 80 nm excita tion) . f and h, The fl uore scen ce spect ra of GECF INDE R-Il e1 and 2 change d as the isoleucine concen tration increas ed fro m 0.5 μM to 10 mM. i, Dose–re spon se curv e of puri fi ed GECF INDE R-H is1 with increas ing concen tra tio ns of histid ine (5 nM to 1 mM). The Norm alized ΔF/F 0 increas ed aft er histidine binding (480 nm excita tion). j, The fl uore scen ce spect ra of GECFIN DER-H is1 changed as the histid ine concen tra tion increas ed fro m 5 nM to 1 mM. k, Diffe re nce in fl uore scen ce intensity of GECF INDE R-b enzoic aci d in the pre sence of 10 µM benzoic aci d compare d to the cont ro l (0 µM benzoic aci d). […] (n=3 biological ly independent samples). *p ≤ 0.05, ***p ≤ 0.001, ****p ≤ 0.0001, and n.s. indicat ed no signifi can t diffe re nce (S tude nt’s two-t aile d t-t est). Source data are provi ded as a Source Data file . […]

For `N[C@@H](Cc1cnc[nH]1)C(=O)O` [His], the “Dose-response, AVE of Repeat 1-3 (Fig. 3 k)” value (from here on “Dose-response, AVE”) (His 0.005 μM) was -4.366e-17, the “Dose-response, AVE” value (His 0.01 μM) was 0.01906 and the “Dose-response, AVE” value (His 0.05 μM) was 0.01899. The “Dose-response, AVE” value (His 0.5 μM) was 0.05174, the “Dose-response, AVE” value (His 5 μM) was 0.1739 and the “Dose-response, AVE” value (His 10 μM) was 0.234. For the same compound, the “Dose-response, AVE” value (His 25 μM) was 0.2903, the “Dose-response, AVE” value (His 50 μM) was 0.3383 and the “Dose-response, AVE” value (His 100 μM) was 0.377. For the same compound, the “Dose-response, AVE” value (His 500 μM) was 0.4545, the “Dose-response, AVE” value (His 750 μM) was 0.4382 and the “Dose-response, AVE” value (His 1000 μM) was 0.4348. The “fluorescence intensity, AVE of 3 repeats” value (Supplementary Fig. 3 h, His 0.75 mM) was 10877.

From article PMC10590383, “Repurposing conformational changes in ANL superfamily enzymes to rapidly generate biosensors for organic and amino acids” (Nature Communications, 2023)
